Measured values taken from US8853424B2 (Japan Science and Technology Agency, priority 2008, dated 2014).
Read-outs that look alike come from different tables or passages of the source.

What was measured:
[1] = system: Truncated N-terminal huntington 150 Q-EGFP-Neuron 2a cells; experiment: Measurement of x-Fold (polyglutamine aggregation inhibitory activity); type: cell-based
Procedure: In the present invention, the polyglutamine aggregation inhibitory activity (x-Fold) can be measured, for example, by the method described in the Example.
The number of the aggregated cells, and the total number of cells were counted by Array Scan V T1 (manufactured by Cellomics, Pittuburg, USA), and the ratio of the aggregated cells to the total number of cells was determined (x-Fold). […]

[2] = system: SOC (store operated calcium channel); experiment: Measurement of SOC IC50 (thapsigargin store depletion, calcium re-addition, CHO cells); type: cell-based; conditions: read-out: SOC IC50
Procedure: The SOC (store operated calcium channel)-suppressive action can be measured by the method described in the Example and using, for example, FDSS 3000.
CHO cell culture medium was replaced with a BSS solution which is an extracellular fluidfree of calcium, the compound of the present invention was added 1 min later, and 1 μM thapsigargin was allowed to act thereon 2 min later to deplete intracellular calcium store. […]

transglutaminase (TGase) = experiment: Measurement of TG (TGase inhibitory activity, monodansyl cadaverine / N,N-dimethylcasein fluorescence, FDSS 3000); type: biochemical
In short: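 Compound (1 μL of 10 mM stock) added to 0.1 mL reaction: 100 mM HEPES-NaOH pH 7.5, 1 mM CaCl2, 20 μM monodansyl cadaverine, 0.05 mg/mL N,N-dimethylcasein, 5 μg/mL TGase. Rate of fluorescence change at 340 nm measured; DMSO control set to 100; TG50 is the concentration halving activity.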

[3] = molecular target: T1, SOCE (ICRAC) reconstituted by STIM1 and Orail (CRACM1) (Homo sapiens, UniProt Q96D31); experiment: ICRAC whole cell patch clamp in HEK293 cells forcibly expressing STIM1 and Orail (CRACM1); type: cell-based; conditions: inward current at −80 mV
T1 construct: expressed in transfected cells; host or cells: HEK293 cells
T1 sequence (Q96D31 whole entry): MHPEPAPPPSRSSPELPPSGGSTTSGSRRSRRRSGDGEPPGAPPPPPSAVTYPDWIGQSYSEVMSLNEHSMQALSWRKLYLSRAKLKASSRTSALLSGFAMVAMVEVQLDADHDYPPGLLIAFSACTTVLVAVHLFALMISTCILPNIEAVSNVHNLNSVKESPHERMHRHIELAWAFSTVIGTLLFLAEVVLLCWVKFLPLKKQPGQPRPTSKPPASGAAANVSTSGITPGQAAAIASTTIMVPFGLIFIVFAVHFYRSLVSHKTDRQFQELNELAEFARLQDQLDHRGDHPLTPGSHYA
Excerpt: FIG. 2 is a drawing showing an Icrac inhibitory effect of 163AE, and the vertical axis and the horizontal axis show the same as in FIG. 1.
The effects of 162AE (bis(3,3′-(phenylaminoethoxyboryl)benzyl)ether described in Example 8) and 163AE (bis(4,4′-(phenylaminoethoxyboryl)benzyl)ether described in Example 131) for ICRAC, whose molecular entity as one of SOCE has been clarified, were investigated using an electrophysiological method. STIM1 and Orail (CRACM1) were forcibly expressed in HEK293 cells, and whole cell records were taken by the Patch clamp technique. BAPTA (20 mM), which is a calcium chelator, and IP3 (20 μM) that depletes intracellular calcium store were added to a recording electrode internal solution (120 mM Cs-glutamate, 10 mM HEPES, 3 mM MgCl2), 10 mM calcium was added to an extracellular solution to facilitate observation of calcium electric current, and a ramp command from −150 mV to +150 mV was input at 0.5 Hz to obtain a current-voltage curve. For quantification of SOCE, the size of the inward current at −80 mV was used as an index. After the start of the whole cell recording, time was taken to sufficiently activate SOCE (ICRAC), and compounds 162AE and 163AE as inhibitors were administered to the cells. […]

[4] = polyglutamine aggregation inhibitory activity, Table 1
[5] = ratio of aggregated cells to total number of cells, compound 20 μM, 20 hr, almost 1 without compound, smaller = stronger inhibition
[6] = CHO cells, 1 μM thapsigargin, 2 mM calcium chloride
[7] = TGase activity with compound (10 mM, 1 μL in 0.1 ml enzyme reaction solution), DMSO control taken as 100

| Compound | x-Fold [1, 4] | x-Fold [1, 5] | IC50 [2, 6] [nM] | TGase activity remaining (% of DMSO control = 100) (transglutaminase (TGase); [7]) | TGase activity remaining (% of DMSO control = 100) (transglutaminase (TGase); TGase inhibitory activity value, Table 1) | IC50 [3] [nM] | IC50 ([2]; Cricetulus griseus, CHO, CHO cells, 1 μM thapsigargin, 2 mM calcium chloride) [nM] | IC50 ([2]; Cricetulus griseus, CHO, Table 1) [nM] | x-Fold ([1]; polyglutamine aggregation, Truncated N-terminal huntington 150 Q-EGFP-Neuron 2a cells) | IC50 ([2]; Table 1) [nM] | TGase activity remaining (% of DMSO control = 100) (transglutaminase (TGase); TGase inhibitory activity measurement, unit not given) |
| --- | --- | --- | --- | --- | --- | --- | --- | --- | --- | --- | --- |
| NCCOB(c1ccccc1)c1cccc(COCc2cccc(B(OCCN)c3ccccc3)c2)c1 [Example 8, bis(3,3′-(phenylaminoethoxyboryl)benzyl)ether] | 1.1 | 1.1 | 200 | 24 | 24 | 86 | – | – | – | – | – |
| NCCOB(c1ccccc1)c1ccc(COCc2ccc(B(OCCN)c3ccccc3)cc2)cc1 [Example 131, bis((4,4′-phenylaminoethoxyboryl)benzyl)ether] | 1.1 | 1.1 | – | – | – | 170 | 300 | 300 | – | – | – |
| Cc1ccc(B(OCCN(C)C)c2ccc(COCc3ccc(B(OCCN(C)C)c4ccc(C)c(Cl)c4)cc3)cc2)cc1Cl [Example 422, bis(4,4′-(3-chloro-4-methylphenyl-N,N-dimethylaminoethoxyboryl)benzyl)ether] | 0.91 | 0.95 | 1200 | 13 | – | – | – | – | 0.95 | 700 | 13 |
